Results reported in PubChem BioAssay (NCI).
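96-well plates; 48 h exposure; 5 concentrations. Endpoints by linear interpolation between flanking doses. Not reached: highest tested concentration assigned. TGI marks complete inhibition of growth.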

Experiments:
Test in all cases: growth of human tumour cells (NCI), 48 h
786-0 renal = test system: 786-0 renal
A498 renal = test system: A498 renal
BT-549 breast = test system: BT-549 breast
CCRF-CEM leukemia = test system: CCRF-CEM leukemia
COLO 205 colon = test system: COLO 205 colon
DU-145 prostate = test system: DU-145 prostate
EKVX NSCLC = test system: EKVX NSCLC
HCC-2998 colon = test system: HCC-2998 colon
HCT-15 colon = test system: HCT-15 colon
HOP-62 NSCLC = test system: HOP-62 NSCLC
HOP-92 NSCLC = test system: HOP-92 NSCLC
LOX IMVI melanoma = test system: LOX IMVI melanoma
M14 melanoma = test system: M14 melanoma
MCF7 breast = test system: MCF7 breast
MDA-MB-231 breast = test system: MDA-MB-231 breast
MDA-N = test system: MDA-N
NCI-H226 lung = test system: NCI-H226 lung
NCI-H23 lung = test system: NCI-H23 lung
NCI-H522 lung = test system: NCI-H522 lung
NCI/ADR-RES ovarian = test system: NCI/ADR-RES ovarian
OVCAR-3 ovarian = test system: OVCAR-3 ovarian
OVCAR-5 ovarian = test system: OVCAR-5 ovarian
PC-3 prostate = test system: PC-3 prostate
RXF 393 renal = test system: RXF 393 renal
SF-295 CNS = test system: SF-295 CNS
SK-MEL-2 melanoma = test system: SK-MEL-2 melanoma
SK-OV-3 ovarian = test system: SK-OV-3 ovarian
SNB-75 CNS = test system: SNB-75 CNS
SW-620 colon = test system: SW-620 colon
T-47D breast = test system: T-47D breast
UACC-62 melanoma = test system: UACC-62 melanoma
A549 NSCLC = test system: A549 NSCLC
ACHN renal = test system: ACHN renal
HCT-116 colon = test system: HCT-116 colon
HL-60(TB) leukemia = test system: HL-60(TB) leukemia
HS 578T breast = test system: HS 578T breast
HT29 colon = test system: HT29 colon
IGROV1 ovarian = test system: IGROV1 ovarian
K-562 leukemia = test system: K-562 leukemia
KM12 colon = test system: KM12 colon
MDA-MB-435 = test system: MDA-MB-435
MOLT-4 leukemia = test system: MOLT-4 leukemia
NCI-H460 lung = test system: NCI-H460 lung
OVCAR-8 ovarian = test system: OVCAR-8 ovarian
RPMI-8226 leukemia = test system: RPMI-8226 leukemia
SF-268 CNS = test system: SF-268 CNS
SF-539 CNS = test system: SF-539 CNS
SK-MEL-28 melanoma = test system: SK-MEL-28 melanoma
SK-MEL-5 melanoma = test system: SK-MEL-5 melanoma
SN12C renal = test system: SN12C renal
SNB-19 CNS = test system: SNB-19 CNS
SR leukemia = test system: SR leukemia
TK-10 renal = test system: TK-10 renal
U251 CNS = test system: U251 CNS
UACC-257 melanoma = test system: UACC-257 melanoma
CAKI-1 renal = test system: CAKI-1 renal
MALME-3M melanoma = test system: MALME-3M melanoma
OVCAR-4 ovarian = test system: OVCAR-4 ovarian
UO-31 renal = test system: UO-31 renal

In the case of `COc1cc(OCCN(C)C)c2[nH]c(C(=O)N3CC(CCl)c4c3cc(N)c3ccccc43)cc2c1` (configuration not stated), the TGI (786-0 renal) is reported as < 0.01 µM, the TGI (A498 renal) is reported as < 0.01 µM and the TGI (BT-549 breast) is reported as 0.379 µM. The TGI (CCRF-CEM leukemia) was > 100 µM, the TGI (COLO 205 colon) was 0.0102 µM and the TGI (DU-145 prostate) was 1.08 µM. For the same molecule, the TGI (EKVX NSCLC) was 0.0521 µM, the TGI (HCC-2998 colon) was < 0.01 µM and the TGI (HCT-15 colon) was 1.32 µM. For the same molecule, the TGI (HOP-62 NSCLC) was < 0.01 µM, the TGI (HOP-92 NSCLC) was < 0.01 µM and the TGI (LOX IMVI melanoma) was < 0.01 µM. The TGI (M14 melanoma) was < 0.01 µM, the TGI (MCF7 breast) was 0.011 µM and the TGI (MDA-MB-231 breast) was 1.17 µM. For the same molecule, the TGI (MDA-N) was < 0.01 µM, the TGI (NCI-H226 lung) was 0.0311 µM and the TGI (NCI-H23 lung) was < 0.01 µM. The TGI (NCI-H522 lung) was < 0.01 µM, the TGI (NCI/ADR-RES ovarian) was 0.0498 µM and the TGI (OVCAR-3 ovarian) was < 0.01 µM. The TGI (OVCAR-5 ovarian) was 0.213 µM, the TGI (PC-3 prostate) was 0.736 µM and the TGI (RXF 393 renal) was < 0.01 µM. For the same molecule, the TGI (SF-295 CNS) was 0.017 µM, the TGI (SK-MEL-2 melanoma) was < 0.01 µM and the TGI (SK-OV-3 ovarian) was 1.32 µM. For the same molecule, the TGI (SNB-75 CNS) was 0.02 µM, the TGI (SW-620 colon) was 0.265 µM and the TGI (T-47D breast) was 1.79 µM. For the same molecule, the TGI (UACC-62 melanoma) was < 0.01 µM.

In the case of `Cc1ccc(S(=O)(=O)C2=Cc3ccccc3C2(O)c2ccccc2)cc1` (configuration not stated), the TGI (786-0 renal) is reported as > 10 µM, the TGI (A498 renal) is reported as > 10 µM and the TGI (A549 NSCLC) is reported as > 100 µM. For the same molecule, the TGI (ACHN renal) was > 100 µM, the TGI (BT-549 breast) was 63.1 µM and the TGI (CCRF-CEM leukemia) was 38.1 µM. The TGI (COLO 205 colon) was 62.6 µM, the TGI (DU-145 prostate) was > 100 µM and the TGI (EKVX NSCLC) was 76 µM. For the same molecule, the TGI (HCC-2998 colon) was 91.3 µM, the TGI (HCT-116 colon) was > 100 µM and the TGI (HCT-15 colon) was > 100 µM. The TGI (HL-60(TB) leukemia) was 29.6 µM, the TGI (HOP-62 NSCLC) was > 10 µM and the TGI (HS 578T breast) was 81.9 µM. The TGI (HT29 colon) was 36.1 µM, the TGI (IGROV1 ovarian) was > 100 µM and the TGI (K-562 leukemia) was 76.5 µM. The TGI (KM12 colon) was 37.6 µM, the TGI (LOX IMVI melanoma) was 34.2 µM and the TGI (M14 melanoma) was 31 µM. For the same molecule, the TGI (MDA-MB-231 breast) was 33.3 µM, the TGI (MDA-MB-435) was 69.9 µM and the TGI (MDA-N) was 48.2 µM. For the same molecule, the TGI (MOLT-4 leukemia) was > 100 µM, the TGI (NCI-H226 lung) was 64.5 µM and the TGI (NCI-H23 lung) was > 100 µM. The TGI (NCI-H460 lung) was 54.6 µM, the TGI (NCI-H522 lung) was 65 µM and the TGI (NCI/ADR-RES ovarian) was 76.6 µM. For the same molecule, the TGI (OVCAR-5 ovarian) was > 100 µM, the TGI (OVCAR-8 ovarian) was 81.2 µM and the TGI (PC-3 prostate) was 92.6 µM. The TGI (RPMI-8226 leukemia) was 44.7 µM, the TGI (SF-268 CNS) was > 100 µM and the TGI (SF-295 CNS) was 76.9 µM. For the same molecule, the TGI (SF-539 CNS) was 47.5 µM, the TGI (SK-MEL-2 melanoma) was 31.4 µM and the TGI (SK-MEL-28 melanoma) was 31.1 µM. The TGI (SK-MEL-5 melanoma) was 31.2 µM, the TGI (SK-OV-3 ovarian) was 79.2 µM and the TGI (SN12C renal) was 34.3 µM. For the same molecule, the TGI (SNB-19 CNS) was > 100 µM, the TGI (SNB-75 CNS) was > 100 µM and the TGI (SR leukemia) was 92 µM. For the same molecule, the TGI (SW-620 colon) was > 100 µM, the TGI (T-47D breast) was > 100 µM and the TGI (TK-10 renal) was > 100 µM. The TGI (U251 CNS) was 87.7 µM and the TGI (UACC-257 melanoma) was > 10 µM.

In the case of `CN(CCNC(=O)c1cn(C)c2c1ccc1ccccc12)CCNC(=O)c1cn(C)c2c1ccc1ccccc12`, the TGI (A498 renal) is reported as > 34.5 µM, the TGI (A549 NSCLC) is reported as 11.1 µM and the TGI (ACHN renal) is reported as > 100 µM. For the same molecule, the TGI (BT-549 breast) was 6.87 µM, the TGI (CAKI-1 renal) was > 100 µM and the TGI (CCRF-CEM leukemia) was > 100 µM. It also gave a TGI (EKVX NSCLC) of 6.93 µM, a TGI (HCC-2998 colon) of 1.49 µM and a TGI (HOP-62 NSCLC) of 5.53 µM. The TGI (HOP-92 NSCLC) was 5.26 µM, the TGI (HS 578T breast) was 3.11 µM and the TGI (HT29 colon) was > 100 µM. The TGI (IGROV1 ovarian) was 4.65 µM, the TGI (KM12 colon) was 2.98 µM and the TGI (LOX IMVI melanoma) was > 100 µM. The TGI (M14 melanoma) was 2.97 µM, the TGI (MALME-3M melanoma) was 5.13 µM and the TGI (MDA-MB-231 breast) was 3.8 µM. For the same molecule, the TGI (MDA-N) was 4.25 µM, the TGI (NCI-H226 lung) was > 75.1 µM and the TGI (NCI-H23 lung) was > 100 µM. For the same molecule, the TGI (NCI-H460 lung) was 3.72 µM, the TGI (NCI/ADR-RES ovarian) was > 100 µM and the TGI (OVCAR-3 ovarian) was 11.4 µM. The TGI (OVCAR-4 ovarian) was 16.2 µM, the TGI (OVCAR-5 ovarian) was 3.52 µM and the TGI (OVCAR-8 ovarian) was > 100 µM. For the same molecule, the TGI (PC-3 prostate) was 7.02 µM, the TGI (SF-268 CNS) was > 21.3 µM and the TGI (SF-295 CNS) was > 22.2 µM. The TGI (SK-MEL-2 melanoma) was 4.6 µM, the TGI (SK-MEL-5 melanoma) was > 100 µM and the TGI (SK-OV-3 ovarian) was 22.3 µM. The TGI (SN12C renal) was 10.6 µM, the TGI (SNB-19 CNS) was > 100 µM and the TGI (SW-620 colon) was > 100 µM. For the same molecule, the TGI (U251 CNS) was 4.58 µM, the TGI (UACC-257 melanoma) was 6.62 µM and the TGI (UACC-62 melanoma) was 12.7 µM. The TGI (UO-31 renal) was 4.68 µM.

For `O=C(NC(CS)C(=O)O)c1c2ccccc2nc2ccccc12` (configuration not stated), the TGI (786-0 renal) was > 100 µM, the TGI (A498 renal) was > 100 µM and the TGI (A549 NSCLC) was > 100 µM. The TGI (ACHN renal) was > 100 µM, the TGI (BT-549 breast) was 58.5 µM and the TGI (CAKI-1 renal) was > 100 µM. For the same molecule, the TGI (CCRF-CEM leukemia) was > 100 µM, the TGI (COLO 205 colon) was 23.5 µM and the TGI (DU-145 prostate) was > 100 µM. The TGI (EKVX NSCLC) was > 100 µM, the TGI (HCC-2998 colon) was > 100 µM and the TGI (HCT-116 colon) was > 100 µM. The TGI (HCT-15 colon) was > 100 µM, the TGI (HL-60(TB) leukemia) was > 100 µM and the TGI (HOP-62 NSCLC) was > 100 µM. The TGI (HOP-92 NSCLC) was > 100 µM, the TGI (HT29 colon) was > 100 µM and the TGI (IGROV1 ovarian) was > 100 µM. For the same molecule, the TGI (K-562 leukemia) was > 100 µM, the TGI (KM12 colon) was > 100 µM and the TGI (LOX IMVI melanoma) was > 100 µM. The TGI (M14 melanoma) was > 100 µM, the TGI (MALME-3M melanoma) was 56.8 µM and the TGI (MCF7 breast) was > 100 µM. For the same molecule, the TGI (MDA-MB-231 breast) was > 100 µM, the TGI (MDA-MB-435) was 16 µM and the TGI (MDA-N) was > 100 µM. The TGI (MOLT-4 leukemia) was > 100 µM, the TGI (NCI-H226 lung) was > 100 µM and the TGI (NCI-H23 lung) was 68.6 µM. For the same molecule, the TGI (NCI-H460 lung) was > 100 µM, the TGI (NCI-H522 lung) was > 100 µM and the TGI (NCI/ADR-RES ovarian) was > 100 µM. The TGI (OVCAR-3 ovarian) was > 100 µM, the TGI (OVCAR-4 ovarian) was > 100 µM and the TGI (OVCAR-5 ovarian) was > 100 µM. For the same molecule, the TGI (OVCAR-8 ovarian) was > 100 µM, the TGI (PC-3 prostate) was > 100 µM and the TGI (RPMI-8226 leukemia) was > 100 µM. For the same molecule, the TGI (SF-268 CNS) was > 100 µM, the TGI (SF-295 CNS) was > 100 µM and the TGI (SF-539 CNS) was > 100 µM. For the same molecule, the TGI (SK-MEL-2 melanoma) was > 100 µM, the TGI (SK-MEL-28 melanoma) was > 100 µM and the TGI (SK-MEL-5 melanoma) was 12.8 µM. For the same molecule, the TGI (SK-OV-3 ovarian) was > 100 µM, the TGI (SN12C renal) was > 100 µM and the TGI (SNB-19 CNS) was > 100 µM. The TGI (SNB-75 CNS) was > 100 µM, the TGI (SR leukemia) was > 100 µM and the TGI (SW-620 colon) was > 100 µM. The TGI (TK-10 renal) was > 100 µM, the TGI (U251 CNS) was > 100 µM and the TGI (UACC-257 melanoma) was > 100 µM. For the same molecule, the TGI (UACC-62 melanoma) was > 100 µM and the TGI (UO-31 renal) was 43 µM.
